The values below come from paper PMC449707 (BMC Pharmacology, 2004).

The assay deals with whole bone marrow cells. Nature of the assay: Fibroblastic colony forming unit. It counts as cell-based, rat. The following applies: for effect on colony number of co-treatment with exogenous PGE2: 10 μM PDE inhibitor plus PGE2 as low as 0.1 nM; for effect on colony number, agent alone: 10 μM, CFU-f assay, no exogenous PGE2.

Regarding `CC(C)Cn1c(=O)n(C)c(=O)c2[nH]cnc21` [IBMX, isobutylmethylxanthine], the “effect on colony number of co-treatment with exogenous PGE2” value was “almost maximal responses” and the “effect on colony number, agent alone” value is listed as “significant stimulation in colony number”.

On to `COc1ccc(C2CNC(=O)C2)cc1OC1CCCC1` (stereo not shown) [rolipram], for which the “effect on colony number of co-treatment with exogenous PGE2” value was “almost maximal responses” and the “effect on colony number, agent alone” value was “significant stimulation in colony number”.
